Source: the NIST ThermoML archive (doi:10.1021/je020189p)
Values joined by “and” are separate entries in the source; they are usually repeats but may differ in a detail not shown here. Equal entries are not always repeated.

Settings: Crystal

[I][Tb]([I])[I] [terbium triiodide]
Settings | vapor or sublimation pressure
861 K | 1.91e-05 kPa
871 K | 2.82e-05 kPa
879 K | 3.31e-05 kPa
883 K | 4.27e-05 kPa
884 K | 3.8e-05 kPa and 5.01e-05 kPa
885 K | 5.01e-05 kPa
891 K | 4.79e-05 kPa
892 K | 6.17e-05 kPa
895 K | 7.08e-05 kPa
897 K | 6.61e-05 kPa and 5.75e-05 kPa
900 K | 0.0001 kPa
902 K | 9.12e-05 kPa
903 K | 7.59e-05 kPa
907 K | 0.000126 kPa
909 K | 0.000115 kPa and 9.55e-05 kPa
911 K | 0.000151 kPa
912 K | 0.000132 kPa
913 K | 0.000123 kPa
915 K | 0.000115 kPa
917 K | 0.000174 kPa
920 K | 0.000141 kPa
921 K | 0.0002 kPa
922 K | 0.000186 kPa
926 K | 0.000209 kPa
927 K | 0.000182 kPa and 0.000251 kPa
928 K | 0.000251 kPa
929 K | 0.000229 kPa
930 K | 0.00024 kPa
931 K | 0.000209 kPa
935 K | 0.00024 kPa
936 K | 0.000339 kPa
937 K | 0.000347 kPa
938 K | 0.000316 kPa
939 K | 0.000339 kPa
940 K | 0.000339 kPa and 0.000282 kPa
942 K | 0.000676 kPa
944 K | 0.000447 kPa
945 K | 0.000479 kPa
947 K | 0.000407 kPa and 0.000363 kPa
948 K | 0.000468 kPa and 0.000427 kPa
951 K | 0.00055 kPa
952 K | 0.001 kPa
953 K | 0.000447 kPa and 0.000603 kPa
955 K | 0.000955 kPa
958 K | 0.000661 kPa and 0.000631 kPa
959 K | 0.000692 kPa and 0.000741 kPa
961 K | 0.000776 kPa
963 K | 0.000661 kPa
964 K | 0.00135 kPa
966 K | 0.000891 kPa and 0.000955 kPa
967 K | 0.000912 kPa and 0.000977 kPa
971 K | 0.00105 kPa and 0.00166 kPa and 0.001 kPa
972 K | 0.00191 kPa and 0.0012 kPa
973 K | 0.00117 kPa and 0.00115 kPa and 0.000955 kPa
975 K | 0.00186 kPa
976 K | 0.00135 kPa
977 K | 0.00141 kPa
979 K | 0.00141 kPa
980 K | 0.00148 kPa and 0.00138 kPa
981 K | 0.00123 kPa
983 K | 0.00151 kPa and 0.0024 kPa
985 K | 0.00186 kPa
986 K | 0.00182 kPa and 0.0017 kPa
987 K | 0.00288 kPa and 0.00191 kPa
988 K | 0.00288 kPa and 0.00178 kPa and 0.00155 kPa
990 K | 0.00288 kPa
992 K | 0.00234 kPa
993 K | 0.00219 kPa
994 K | 0.00229 kPa and 0.00182 kPa
995 K | 0.0024 kPa and 0.00389 kPa
998 K | 0.00282 kPa [middle of 4 runs]
1001 K | 0.00282 kPa
1002 K | 0.0024 kPa
1003 K | 0.00288 kPa and 0.00501 kPa
1004 K | 0.00479 kPa and 0.00339 kPa
1005 K | 0.00479 kPa
1006 K | 0.00309 kPa
1008 K | 0.00339 kPa and 0.00389 kPa
1009 K | 0.00282 kPa and 0.0038 kPa
1012 K | 0.00575 kPa and 0.00676 kPa
1013 K | 0.00447 kPa
1015 K | 0.00437 kPa
1016 K | 0.00708 kPa
1017 K | 0.00525 kPa
1018 K | 0.00501 kPa
1019 K | 0.00759 kPa
1020 K | 0.00912 kPa
1021 K | 0.00617 kPa
1022 K | 0.0055 kPa
1026 K | 0.00661 kPa
1027 K | 0.00977 kPa
1028 K | 0.00955 kPa
1029 K | 0.00676 kPa and 0.0117 kPa and 0.00692 kPa
1033 K | 0.00813 kPa
1036 K | 0.0129 kPa
1037 K | 0.00891 kPa and 0.0132 kPa
1039 K | 0.0162 kPa
1043 K | 0.0162 kPa
1044 K | 0.0115 kPa
1049 K | 0.0195 kPa and 0.0204 kPa and 0.0224 kPa
1050 K | 0.0135 kPa
1057 K | 0.0245 kPa
1058 K | 0.0174 kPa
1059 K | 0.0263 kPa and 0.0309 kPa
1064 K | 0.0209 kPa and 0.0309 kPa
1066 K | 0.0316 kPa and 0.038 kPa
1070 K | 0.0263 kPa
1072 K | 0.0389 kPa
1077 K | 0.0324 kPa
1078 K | 0.0457 kPa

[I][Gd]([I])[I] [gadolinium triiodide]
Settings | vapor or sublimation pressure
890 K | 4.47e-05 kPa
891 K | 5.62e-05 kPa
901 K | 6.76e-05 kPa and 8.32e-05 kPa and 5.62e-05 kPa
905 K | 8.51e-05 kPa
911 K | 0.000112 kPa
912 K | 8.91e-05 kPa
913 K | 0.000112 kPa
914 K | 0.000138 kPa and 8.91e-05 kPa
916 K | 0.000112 kPa
918 K | 0.000135 kPa
919 K | 0.000155 kPa
920 K | 0.000112 kPa
922 K | 0.000178 kPa
924 K | 0.000123 kPa
925 K | 0.000178 kPa
927 K | 0.000174 kPa and 0.000151 kPa
928 K | 0.000145 kPa and 0.000195 kPa and 0.000209 kPa
929 K | 0.000234 kPa
933 K | 0.000191 kPa
934 K | 0.000269 kPa
936 K | 0.0002 kPa
937 K | 0.000282 kPa and 0.000251 kPa
938 K | 0.000324 kPa
939 K | 0.000295 kPa
942 K | 0.000347 kPa and 0.000269 kPa
943 K | 0.000245 kPa
944 K | 0.000355 kPa
946 K | 0.000398 kPa
947 K | 0.000389 kPa
948 K | 0.000372 kPa
951 K | 0.000331 kPa
952 K | 0.00049 kPa
954 K | 0.000417 kPa
955 K | 0.000525 kPa and 0.000603 kPa
957 K | 0.000575 kPa and 0.000457 kPa
959 K | 0.000447 kPa
962 K | 0.000708 kPa
964 K | 0.000794 kPa
966 K | 0.000575 kPa and 0.000794 kPa and 0.000631 kPa
967 K | 0.000724 kPa
970 K | 0.000912 kPa
973 K | 0.00107 kPa
974 K | 0.00102 kPa
975 K | 0.00107 kPa and 0.000891 kPa
978 K | 0.000832 kPa and 0.00107 kPa
979 K | 0.00126 kPa
983 K | 0.00135 kPa and 0.00115 kPa
984 K | 0.00145 kPa
985 K | 0.00158 kPa
987 K | 0.00162 kPa
988 K | 0.00115 kPa
990 K | 0.00155 kPa
992 K | 0.00174 kPa and 0.00141 kPa
993 K | 0.00191 kPa and 0.00204 kPa
995 K | 0.00214 kPa
997 K | 0.00138 kPa
1002 K | 0.00251 kPa and 0.00219 kPa
1003 K | 0.00269 kPa
1006 K | 0.00191 kPa
1011 K | 0.00331 kPa and 0.00282 kPa
1012 K | 0.00355 kPa
1019 K | 0.00339 kPa
1021 K | 0.00389 kPa
1023 K | 0.00676 kPa
1026 K | 0.00407 kPa
1033 K | 0.00871 kPa and 0.00537 kPa
1040 K | 0.00603 kPa
1042 K | 0.00692 kPa
1045 K | 0.0126 kPa
1052 K | 0.00871 kPa
1054 K | 0.00977 kPa
1055 K | 0.017 kPa
1064 K | 0.0219 kPa
1066 K | 0.0135 kPa and 0.0145 kPa
1074 K | 0.0302 kPa
1076 K | 0.0209 kPa
1082 K | 0.0214 kPa
1083 K | 0.0398 kPa
1086 K | 0.0282 kPa
1094 K | 0.0537 kPa
1097 K | 0.0372 kPa
1102 K | 0.0676 kPa
